Molecules are shown by their SMILES. pEC50: −log10 of the molar value.

In the assay the target is Mu-type opioid receptor (Homo sapiens, UniProt P35372). In words: FLIPR Calcium Assay. On the procedure: One day before the assay, CORNING black with clear flat bottom 96-well assay plates were coated with a 0.1 mg/mL Poly-L-Lysine solution. CHO-K1/MOR/Gα15 cells were suspended in the F12 medium and plated at a density of 8×10^4 cells/well in 200 μL medium. Cells were incubated in a humidified atmosphere of 10% CO2 at 37° C. overnight so as to reach an 80-90% confluent cell monolayer before assay. At the day of assay, 150 μL medium/well was removed from plate. To each well, 50 μL FLIPR calcium assay reagent dissolved in 1× assay buffer (HBSS: KCl 5 mM, KH2PO4 0.3 mM, NaCl 138 mM, NaHCO3 4 mM, Na2HPO4 0.3 mM, d-glucose 5.6 mM, with additional 20 mM HEPES and 13 mM CaCl2, pH 7.4), with 2.5 mM probenecid was added and the plate was incubated at 37° C. for 1 h. Compounds and other reagents were dissolved in the assay buffer. Using a FlexStationIII (Molecular Devices Corp.), the [Ca2+]i fluorescence increases after robotic injections of compounds or other reagents were monitored every 1.52 s interval with excitation wavelength at 485 nm and with emission wavelength at 525 nm. The [Ca2+]i fluorescence was measured up to 90 s after agonist injection.
Mu-type opioid receptor, sequence (P35372 whole entry): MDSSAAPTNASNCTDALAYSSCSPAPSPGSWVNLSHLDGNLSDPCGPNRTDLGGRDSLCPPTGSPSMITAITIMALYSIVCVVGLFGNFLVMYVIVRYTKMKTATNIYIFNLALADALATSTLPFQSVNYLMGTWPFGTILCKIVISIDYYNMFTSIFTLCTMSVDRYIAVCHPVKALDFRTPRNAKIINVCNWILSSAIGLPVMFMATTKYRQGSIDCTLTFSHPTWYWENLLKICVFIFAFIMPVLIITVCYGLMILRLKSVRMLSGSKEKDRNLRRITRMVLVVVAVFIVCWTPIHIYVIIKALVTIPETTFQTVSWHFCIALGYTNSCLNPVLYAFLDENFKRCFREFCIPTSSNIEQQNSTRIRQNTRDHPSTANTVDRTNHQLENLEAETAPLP
`COc1ccccc1N1C(=O)CSC1c1ccc(F)cc1` (stereo not drawn) [US10544113, No. 2]: the pEC50 was 4.72.
Next, `COCCOCCOC(=O)c1ccc(N2C(=O)CSC2c2ccc(F)cc2)c(C)c1` (stereo not drawn) [US10544113, No. 280]: 5.15.
In the case of `Cc1cc(C(=O)OCCN2CCCC2)ccc1N1C(=O)CSC1c1ccc(F)cc1` (stereo not drawn) [US10544113, No. 294], the pEC50 is 5.54.
`COc1ccc(F)cc1N1C(=O)CSC1c1ccc(F)c(F)c1` (stereo not drawn) [US10544113, No. 4]: the pEC50 is 5.48.
With `Cc1cccc(F)c1N1C(=O)CSC1c1ccc(F)cc1` (stereo not drawn) [US10544113, No. 108], the pEC50 was 5.48.
As to `Cc1cc(C(=O)OCCCc2ccccc2)ccc1N1C(=O)CSC1c1ccc(F)cc1` (stereo not drawn) [US10544113, No. 253], the pEC50 was 4.95.
The same measure for `Cc1cc(C(=O)NCCc2ccccc2Cl)ccc1N1C(=O)CSC1c1ccc(F)cc1` (stereo not drawn) [US10544113, No. 384]: 5.18; for `COc1cc(N2C(=O)CSC2c2ccc(F)cc2)cc(OC)c1OC` (stereo not drawn) [US10544113, No. 16]: 5.08; for `COCCCNC(=O)c1ccc(N2C(=O)CSC2c2ccc(F)cc2)c(C)c1` (stereo not drawn) [US10544113, No. 343]: 5.43.
Next, `COc1ccc(F)cc1N1C(=O)CSC1c1ccc(F)cc1` (stereo not drawn) [US10544113, No. 6]: 5.41; `COc1ccccc1N1C(=O)CSC1c1cccc(F)c1` (stereo not drawn) [US10544113, No. 1]: 4.91.
Take `Cc1cc(C(=O)NCCN2CCOCC2)ccc1N1C(=O)CSC1c1ccc(F)cc1` (stereo not drawn) [US10544113, No. 344]: the pEC50 was 5.15.
Next, `COc1ccc(F)cc1N1C(=O)CSC1c1cccc(F)c1` (stereo not drawn) [US10544113, No. 5]: 5.28.

The values are drawn from BindingDB's records for patent US10544113 (National Health Research Institute; Regents of the …, 2020).
